Laboratory results reported in PubChem BioAssay (NCI).
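These data come from cells grown in 96-well plates and exposed to compound for 48 hours at five concentrations. GI50 = concentration required for 50% inhibition of growth. TGI is the concentration that stops growth completely.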

Assays:
Assay in all cases: NCI tumour cell line growth inhibition, 48 h
KM12 colon = system: KM12 colon
OVCAR-4 ovarian = system: OVCAR-4 ovarian
OVCAR-8 ovarian = system: OVCAR-8 ovarian
SF-268 CNS = system: SF-268 CNS
SF-295 CNS = system: SF-295 CNS
SNB-19 CNS = system: SNB-19 CNS
UACC-62 melanoma = system: UACC-62 melanoma
SK-MEL-28 melanoma = system: SK-MEL-28 melanoma
SNB-75 CNS = system: SNB-75 CNS
MDA-MB-435 = system: MDA-MB-435

SMILES | TGI (KM12 colon) [µM] | TGI (OVCAR-4 ovarian) [µM] | TGI (OVCAR-8 ovarian) [µM] | TGI (SF-268 CNS) [µM] | TGI (SF-295 CNS) [µM] | TGI (SNB-19 CNS) [µM] | TGI (UACC-62 melanoma) [µM] | TGI (SK-MEL-28 melanoma) [µM] | TGI (SNB-75 CNS) [µM] | GI50 (KM12 colon) [µM] | GI50 (MDA-MB-435) [µM] | TGI (MDA-MB-435) [µM] | GI50 (OVCAR-4 ovarian) [µM] | GI50 (OVCAR-8 ovarian) [µM] | GI50 (SF-268 CNS) [µM] | GI50 (SF-295 CNS) [µM] | GI50 (SNB-19 CNS) [µM] | GI50 (SNB-75 CNS) [µM] | GI50 (UACC-62 melanoma) [µM] | GI50 (SK-MEL-28 melanoma) [µM]
COC(=O)[C@]1(C)CCC[C@]2(C)C3CC4OOC3(C=C4C(C)C)CCC21 (some centres not stated) | 32.4 | 45.7 | 41.8 | 30.1 | 31.3 | 31.3 | 32.3 | – | – | – | – | – | – | – | – | – | – | – | – | –
C=C1CCC2C(C)(CO)C(O)CCC2(C)C1CC(O)C1=CCOC1=O (configuration not stated) | > 100 | > 100 | > 100 | > 100 | > 100 | > 100 | > 100 | > 100 | > 100 | – | – | – | – | – | – | – | – | – | – | –
CC1=C(C(=O)Nc2ccc(Cl)c(Cl)c2)C(c2cccc(O)c2)NC(=S)N1 (configuration not stated) | 16.6 | > 50 | 28.1 | 17 | 17.6 | 30.3 | 14.7 | – | 47.8 | 7.77 | 9.16 | 18.5 | 12.4 | 15.9 | 8.35 | 8.63 | 11.4 | 11.8 | 7.09 | –
COc1ccc2c(c1)N(CCO)C1=C(C(=O)OC1)C2c1cccc(Br)c1 (configuration not stated) | 5.05 | > 100 | 13.9 | 21.3 | 1.52 | > 100 | 44.5 | – | > 100 | 0.0489 | 0.0225 | 0.0623 | 0.123 | 0.14 | 0.0864 | 0.0319 | 0.141 | 0.0647 | 0.048 | –
N#Cc1ccccc1/C=N/O | > 100 | > 100 | > 100 | > 100 | > 100 | > 100 | > 100 | > 100 | > 100 | – | – | – | – | – | – | – | – | – | – | –
CCCN1CN(C(C(=O)N[C@@H]2C(=O)N3C(C(=O)O)=C(C)CSC23)c2ccccc2)CSC1=S (some centres not stated) | > 100 | > 100 | > 100 | > 100 | > 100 | > 100 | > 100 | > 100 | > 100 | – | – | – | – | – | – | – | – | – | – | –
C/C(CC(=O)Nc1ccc([N+](=O)[O-])cc1)=N/N=C(N)N | > 100 | – | > 100 | > 100 | > 100 | – | > 100 | > 100 | > 100 | – | – | – | – | – | – | – | – | – | – | –
O=C(Nc1ccc(Cl)cc1Cl)/C(Cl)=C1/Sc2ccccc2NC1=O | – | > 100 | > 100 | > 100 | – | > 100 | > 100 | 75.7 | 85.9 | – | – | – | – | – | – | – | – | – | – | –
Cc1ccc(S(=O)(=O)NC(=O)Nc2nc(Cl)cc(Cl)n2)cc1 | > 100 | > 100 | > 100 | > 100 | > 100 | > 100 | > 100 | > 100 | > 100 | – | – | – | – | – | – | – | – | – | – | –
O=C(Nc1cccc(-n2cc(-c3ccncc3)c(-c3ccc(O)c(Cl)c3)n2)c1)Nc1ccc(Cl)c(C(F)(F)F)c1 | 3.26 | 9.97 | – | 8.1 | 5.12 | > 100 | 5.07 | 3.8 | 6.85 | 1.61 | 1.98 | 4.88 | 2.77 | – | 2.46 | 1.88 | 3.63 | 1.23 | 2.13 | 1.67
O=c1nc2[nH]nc(-c3ccccc3)c2n[nH]1 | > 100 | > 100 | > 100 | > 100 | > 100 | > 100 | > 100 | > 100 | – | – | – | – | – | – | – | – | – | – | – | –
COc1cc2c(cc1C)NC(=O)/C2=C/c1c(C)nc2sc(C)cn12 | > 100 | > 100 | > 100 | > 100 | > 100 | > 100 | > 100 | > 100 | – | 40.7 | 32.4 | > 100 | > 100 | > 100 | 85.3 | 45.2 | > 100 | – | 38.9 | > 100
C=CCn1c(=S)sc2c(=O)[nH]cnc21 | > 100 | > 100 | > 100 | > 100 | > 100 | > 100 | > 100 | – | > 100 | – | – | – | – | – | – | – | – | – | – | –
Cn1c2ccccc2c(=S)c2cc(NC(=O)CCCCC(=O)Nc3ccc4c(c3)c(=S)c3ccccc3n4C)ccc21 | > 100 | – | > 100 | > 100 | > 100 | > 100 | > 100 | > 100 | > 100 | – | – | > 100 | – | – | – | – | – | – | – | –
Cc1ccccc1C(C#N)/C(=N/NC(=O)C(=O)NN)C(=O)Nc1cccc(C(F)(F)F)c1 (configuration not stated) | > 100 | > 100 | > 100 | > 100 | > 100 | > 100 | > 100 | > 100 | > 100 | – | – | – | – | – | – | – | – | – | – | –
COc1cc([C@@H]2c3cc4c(cc3[C@@H](NC(=O)c3ccc([N+](=O)[O-])cc3)C3COC(=O)[C@@H]32)OCO4)cc(OC)c1O (some centres not stated) | 4.19 | > 100 | 6.05 | 5.77 | 11.5 | 6.06 | 2.04 | 89 | 4.86 | – | – | – | – | – | – | – | – | – | – | –
C/C(CN1C(=O)c2ccccc2C1=O)=N\NS(C)(=O)=O | > 100 | > 100 | > 100 | > 100 | > 100 | > 100 | > 100 | > 100 | > 100 | – | – | – | – | – | – | – | – | – | – | –
CC(=O)O[C@@H]1CC(=O)O[C@@H]2C[C@@H](CC/C(Cl)=C/C/C=C\1C)O[C@@H]2CO | > 6.4 | – | > 25 | > 25 | > 25 | > 25 | > 25 | > 25 | > 25 | – | – | – | – | > 25 | > 25 | – | > 25 | > 25 | > 25 | > 25
O=CNc1ccc2c(c1)Cc1cc([N+](=O)[O-])ccc1-2 | > 100 | > 100 | > 100 | > 100 | > 100 | > 100 | > 100 | > 100 | > 59.5 | 0.715 | – | – | > 65.5 | 4.99 | 5.02 | 0.981 | 5.63 | 3.02 | 4.3 | > 22.3
O=CN/C=C/c1ccccc1O | > 100 | > 100 | > 100 | > 100 | > 100 | > 100 | > 100 | > 100 | > 100 | – | – | – | – | – | – | – | – | – | – | –
